Test results published in US5208227A, “Method, compositions, and compounds for modulating brain excitability” (priority 1991, dated 1993).

Columns and labels:
[1] = tested on: GBR complex ([35S]TBPS site); assay: dissociation kinetics of [35S]TBPS in cortical P2 homogenates; assay type: binding, rat; conditions: for effect on dissociation mechanism/kinetics of [35S]TBPS (in words): pentobarbital 30 micromolar, alphaxalone 300 nanomolar, 5-alpha-pregnan-3-alpha-hydroxy-20-one 20 nanomolar
Experimental: An assay was performed to determine the effect of pentobarbital on the dissociation kinetics of [^35 S]TBPS in rat cerebral cortical membranes. This assay was performed in accordance with the procedures outlined above. […] Dissociation of bound [^35 S]TBPS was initiated by 2 micromolar TBPS in all cases.

BZ receptor = assay: modulation of [3H] flunitrazepam binding; parameters: species or system rat; conditions: pentobarbital 1.0 millimolar; 0.25 nM [3H]FLU; absence of GABA
[2] = tested on: metrazol-induced convulsions in mice; assay: metrazol-induced convulsions; assay type: in vivo; conditions: Mus musculus, metrazol 85 mg/kg, 95% confidence limits, read-out: MTZ (metrazol) ED50
Experimental: (§1) Experiments were also performed to determine the physiological relevance of these interactions by measuring the ability of the compounds of and used in the invention to modulate TBPS-induced convulsions in Swiss-Webster mice. […] The time to onset of myoclonus (presence of forelimb clonic activity) induced by TBPS was determined by observing each mouse for a period of 45 minutes. Significant differences between the time to onset in control mice vs. steroid-treated mice were determined by Student's t-test. […] The number of animals with tonic and/or clonic convulsions was recorded. In the maximal electroshock test, 50 mA of current at 60 Hz was delivered through corneal electrodes for 200 msec. […] The ED50 (the dose at which the half-maximal effect occurs) dose was determined for each screen.

[3] = tested on: (+)bicuculline-induced seizures in mice; assay: animal or person; assay type: in vivo
Experimental: as §1

[4] = tested on: picrotoxin-induced convulsions in mice; assay: picrotoxin-induced convulsions; assay type: in vivo; conditions: Mus musculus, read-out: PICRO (picrotoxin) ED50
Experimental: as §1

[5] = tested on: strychnine-induced convulsions in mice; assay: strychnine-induced convulsions; assay type: in vivo; conditions: Mus musculus, read-out: STR (strychnine) ED50
Experimental: as §1

progesterone receptor = molecular target: T1, progesterone receptor (Rattus norvegicus, UniProt Q63449); assay: [3H]R5020 binding to the progesterone receptor in rat uterus; conditions: FIG. 5
T1 sequence (Q63449 1-923): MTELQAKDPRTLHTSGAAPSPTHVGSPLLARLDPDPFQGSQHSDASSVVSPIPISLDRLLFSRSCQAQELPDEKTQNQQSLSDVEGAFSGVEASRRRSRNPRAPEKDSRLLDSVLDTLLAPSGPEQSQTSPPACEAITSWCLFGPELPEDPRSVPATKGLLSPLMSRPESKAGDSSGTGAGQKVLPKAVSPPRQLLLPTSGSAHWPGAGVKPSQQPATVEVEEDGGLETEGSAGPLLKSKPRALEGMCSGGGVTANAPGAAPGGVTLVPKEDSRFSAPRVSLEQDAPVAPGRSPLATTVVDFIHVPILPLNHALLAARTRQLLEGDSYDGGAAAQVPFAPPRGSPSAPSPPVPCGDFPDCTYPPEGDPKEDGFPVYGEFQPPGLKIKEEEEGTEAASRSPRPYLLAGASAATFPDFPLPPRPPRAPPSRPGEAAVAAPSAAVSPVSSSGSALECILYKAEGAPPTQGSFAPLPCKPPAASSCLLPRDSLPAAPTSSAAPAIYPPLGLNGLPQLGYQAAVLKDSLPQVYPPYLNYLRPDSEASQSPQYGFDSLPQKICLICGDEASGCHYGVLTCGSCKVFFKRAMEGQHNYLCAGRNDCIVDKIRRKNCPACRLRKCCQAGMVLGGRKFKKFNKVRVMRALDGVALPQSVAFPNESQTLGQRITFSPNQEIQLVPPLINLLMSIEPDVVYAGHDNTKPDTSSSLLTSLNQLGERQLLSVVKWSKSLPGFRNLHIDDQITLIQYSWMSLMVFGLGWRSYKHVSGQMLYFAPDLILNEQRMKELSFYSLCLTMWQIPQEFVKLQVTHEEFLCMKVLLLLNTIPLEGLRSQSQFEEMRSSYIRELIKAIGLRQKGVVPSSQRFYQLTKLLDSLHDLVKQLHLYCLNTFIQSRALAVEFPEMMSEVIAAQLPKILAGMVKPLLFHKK
Source text: The data plotted in FIG. 5 were obtained by performing assays in accordance with the procedures outlined above to determine the effect of progesterone metabolites and the progestin R5020 on the binding of [^3 H]R5020 to the progesterone receptor in rat uterus. All points on the plot of FIG. 5 represent the mean of triplicate determinations. The following compounds are those listed in FIG. 5: 5-alpha-pregnan-3-alpha-ol-20-one (DHP), 5-alpha-pregnan-3-alpha,21-diol-20-one (Th-DOC), and 5-beta-pregnane-3-alpha,20 diol (5 BETA).

acute LD50 = conditions: mouse, in vivo
mice [6] = assay: acute LD50; conditions: mice
mice [7] = assay: rotorod test (sedative potential)

## CC(=O)[C@H]1CC[C@H]2[C@@H]3CC[C@H]4C[C@H](O)CC[C@]4(C)[C@H]3CC[C@]12C [3α-hydroxy-5α-pregnan-20-one]
[1]; (**P < 0.01 vs control), alphaxalone 300 nM, 3a-OH-DHP 20 nM
  Total percentage of specific sites, rapidly dissociating (R): 35 ± 3 percentage
[1]; (*P < 0.05 vs control), alphaxalone 300 nM, 3a-OH-DHP 20 nM
  Total percentage of specific sites, slowly dissociating (S): 68 ± 3 percentage
[1]; [35S]TBPS dissociation, pentobarbital 30 nM [sic], alphaxalone 300 nM, 3a-OH-DHP 20 nM
  k-1, slowly dissociating component (S): 0.011 min⁻¹
[1]
  effect on dissociation mechanism/kinetics of [35S]TBPS (in words): absent
[1]; listed as 5-alpha-pregnan-3-alpha-ol-20-one
  effect on dissociation mechanism/kinetics of [35S]TBPS (in words): do not influence the dissociation kinetics
BZ receptor
  interaction with pentobarbital in enhancement of [3H] flunitrazepam binding: does not interact with pentobarbital
[2]
  ED50: 18.8 ± 1.1 mg/kg
[3]; Mus musculus, (+)bicuculline 2.7 mg/kg, 95% confidence limits, read-out: BIC (bicuculline) ED50
  ED50: 4.1 ± 1.7 mg/kg
[3]; compared with clinically useful anticonvulsants, Table 3
  anticonvulsant effectiveness (in words): highly effective with a profile similar to that of the benzodiazepine clonazepam
[4]
  ED50: 31.7 ± 1.1 mg/kg
[5]
  ED50: > 300 mg/kg
Progesterone receptor
  affinity for the progesterone receptor: lack of affinity
Acute LD50
  LD50: > 500 mg/kg
Mice [6]
  toxicity (in words): very low toxicity
Mice [7]; ED50 rotorod versus (+)bicuculline-induced seizures
  sedative liability at anticonvulsant doses: low
Mice [7]; mice, 10 minutes after injection, 6 rpm rod
  Rotorod (RR) ED50: 40-100
